Laboratory results published in a melting point compilation (Tetko et al.; mined from patent text by program, amines drawn as free bases though some values may be those of a salt).

Row | melting point | SMILES
1 | 154 to 158 °C | O=c1[nH]c(Cc2ccc(OCCc3coc(-c4ccccc4)n3)cc2)no1
2 | 204 to 206 °C | CC(C)(C)OC(=O)NCCc1c[nH]c2ccc(CCO)cc12
3 | 163 to 165 °C | COC(=O)c1ccc(NC(=O)NCCCl)cc1
4 | 293 to 295 °C | CC(C)Oc1ccccc1-c1cc(=O)c2cc(-c3nnn[nH]3)ccc2o1
5 | 183 to 185 °C | CCOC(=O)Cc1c(C(=O)O)c(Br)c(C(=O)c2ccc(C)cc2)n1C
6 | 102 to 104 °C | CN(C)c1nsc2nc3ccccc3n12
7 | 203 to 204 °C | CC(=O)Nc1c(C)c2c(c(C)c1[N+](=O)[O-])OC(C)(C)C2
8 | 138 to 140 °C | CSc1cn(C)c2sccc2c1=O
9 | 176 to 179 °C | O=C(NCCCCCC(=O)c1ncco1)c1cc2ccccc2[nH]1
10 | 102 to 103 °C | Brc1ccc2c(c1)/C(=C/CCN1CCCC1)c1cc(Br)ccc1OC2
11 | 184 to 186 °C | Cc1nnc2ccc(-c3cccc(F)c3)nn12
12 | 96 to 98 °C | CCCN(CCCC12CC3CC(CC(C3)C1)C2)C(=O)NCc1ccncc1
13 | 96 to 97 °C | CCOC(=O)CN1c2ccccc2Oc2ccccc21
14 | 113 to 114 °C | COCc1nnc(NC(=O)C2c3ccccc3Oc3ccccc32)o1
15 | 236 to 238 °C | CCC1(Cc2ccc(O)cc2)NC(=O)NC1=O (centres undefined)
16 | 106 °C | COCOc1ccc(OC)c(F)c1C(=O)c1ccc(C(=O)N[C@@H]2CCCN(C(=O)OC(C)(C)C)C[C@H]2NC(=O)c2ccncc2)cc1
17 | 213 to 216 °C | CC1(C)CCc2c(ccc3c2C(=O)C(Br)=C(O)C3=O)O1
18 | 141 °C | COc1ccc(C(C)=Cc2ccc3ccccc3c2)cc1
19 | 168 to 170 °C | N=C(N)N(CCCCc1ccc(OCC(=O)Nc2ccccc2)cc1)C(=O)c1nc(Cl)c(N)nc1N
20 | 215 to 219 °C | O=c1oc(-c2ccccc2)cc(O)c1Oc1ccccc1
21 | 242 to 244 °C | CCN(CC)CCOc1ccc2cc3ccc(OCCN(CC)CC)c(CN4C(=O)c5ccccc5C4=O)c3nc2c1CN1C(=O)c2ccccc2C1=O
22 | 207 to 208 °C | Nc1ccc(C(=O)Nc2ccc3oc4c(c3c2)CCCC4)cc1
23 | 201 to 202 °C | CNC(=S)C1(c2cccnc2)CCCCC1=CCOc1ccc([N+](=O)[O-])cc1 (centres undefined)
24 | 112 to 115 °C | COc1ccc(-c2cccc3c(C(C)C)c(C)nn23)c(Cl)c1

Row | melting point | SMILES
25 | 106 to 108 °C | O=[N+]([O-])c1ccc(N2C[C@@H]3C[C@H]2CO3)c(F)c1
26 | 42 to 42.5 °C | CCc1ccc(-c2onc3ccccc23)cc1
27 | > 360 °C | CN1CCN(C(=O)c2ccc3c([N+](=O)[O-])c(O)c(O)cc3c2)CC1
28 | 184 to 186 °C | FC(F)(F)Oc1ccc(C=CC(C=Cc2ccc(OC(F)(F)F)cc2)=NNC2=NCCCCN2)cc1
29 | 140 to 143 °C | COC(=O)c1cc(-c2ccc3cc4c(cc3c2)C(C)(C)CCC4(C)C)c[nH]1
30 | 92 °C | O=C(Nc1cccc2ccccc12)OCCCC(O)c1ccccc1 (centres undefined)
31 | 127 to 134 °C | CCOC(=O)C(=CN[C@@H](C)CO)C(=O)c1c(F)c(F)c(Br)c(F)c1F
32 | 189 to 190 °C | CC(C)c1cccc(C(C)C)c1NC(=O)NCC1CCCc2ccccc21 (centres undefined)
33 | 132 to 134 °C | c1ccc(C(Sc2nnn[nH]2)c2ccccc2)cc1
34 | 129 to 131 °C | O=C(c1cc2ccccc2o1)C12CC3CC(CC(C3)C1)C2
35 | 279 to 280 °C | O=C(O)C1CCc2c(c(=O)c3cccnc3n2-c2cccc(Cl)c2)C1 (centres undefined)
36 | 281 to 284 °C | CCOC(=O)Cn1c(C)c(-c2ccnc3cc(Cl)ccc23)c2cc(NC(C)=O)ccc21
37 | 185 °C | COC(=O)c1ccc(OC)cc1I
38 | 270 to 272 °C | NNC(=O)c1cccc2nnsc12
39 | 129 to 132 °C | CCCCCCCCC1N=C(N)NC(Nc2cc(C(C)(C)C)ccc2OC)=N1 (centres undefined)
40 | 171 to 175 °C | CNC(=O)c1ccccc1Nc1nc(Nc2cc3c(cc2OC)CCN(CCOC)CC3)ncc1Br
41 | 278 to 280 °C | O=C1CCC(N2Cc3c(OCc4ccc5nc(CN6CCOCC6)cn5c4)cccc3C2=O)C(=O)N1 (centres undefined)
42 | 148 °C | COc1cc(Cn2[nH]c(N)cc2=O)ccc1Cl
43 | 189 °C | CCOC(=O)c1c(Oc2cccc(Cl)c2)c2cc(C(c3ccc(Cl)cc3)c3cnc(-c4ccccc4)[nH]3)ccc2[nH]c1=O (centres undefined)
44 | 213 to 214 °C | O=S1(=O)N=C(NC2(CO)CCCC2)Nc2cc(Cl)sc21
45 | 35 to 36 °C | CCN(CC)c1c([N+](=O)[O-])cc(C(F)(F)F)c(Cl)c1[N+](=O)[O-]
46 | 178 to 180 °C | CCNc1ccc(NC(=O)c2ccc(C)c(Nc3nccc(-c4cccnc4)n3)c2)cc1C(F)(F)F
47 | 145 to 146 °C | CCOc1cc(OCCCc2cn(-c3ccc(C(F)(F)F)cn3)nc2OC)ccc1CCC(=O)O
48 | 266 to 267 °C | COC(=O)c1[nH]c2cccc3c2c1CCNC3=O

Row | melting point | SMILES
49 | 130 to 132 °C | CN1C(=O)N=NC1CSc1ccccc1OCCc1coc(-c2ccccc2)n1 (centres undefined)
50 | 109 to 110 °C | COc1cc2c(cc1OC)C(c1ccccc1)N(C(=O)NCCN(C(C)C)C(C)C)CC2 (centres undefined)
51 | 95 to 96 °C | c1ccc2nc(COc3cccc4cccnc34)ccc2c1
52 | 217 °C | Cc1cc(-c2cc(C(F)F)n3ncc(C(=O)O)c3n2)ccc1C(F)(F)F
53 | 200 to 203 °C | CCOC(=O)NC(C(=O)NN(Cc1ccc(-c2cncs2)cc1)CC(O)C(Cc1ccccc1)NC(=O)C(NC(=O)OC)C(C)CC)C(C)C (centres undefined)
54 | 226 to 229 °C | Cc1ccc(O)c2c1CCC1C2CCC2(C)C(O)CCC12 (centres undefined)
55 | 140 °C | COC(=O)N(O)c1cccnc1Oc1ccccc1
56 | 138 to 139 °C | O=C(C=Cc1cccnc1)NC(Cc1c[nH]c2ccccc12)C(=O)CCc1cc(C(F)(F)F)cc(C(F)(F)F)c1 (centres undefined)
57 | 169 to 170 °C | CC1(C)[C@@H]2CC3[C@H](C(=O)NCC(N)=O)[C@@]3(C)C[C@@H]21 (some centres undefined)
58 | 220 °C | O=C(NCc1ccccn1)Nc1nc(C(=O)O)cs1
59 | 174 to 175 °C | CC(C)(O)c1cccc(-c2ccc3nc(-c4ccc(Cl)cc4)c(F)n3c2)c1
60 | 204 °C | CCN(CC)C(=O)Nc1ccc(S(=O)(=O)N2C(=O)C(N[C@@H](C)C(=O)OC)(c3ccccc3Cl)c3cc(Cl)ccc32)cc1 (some centres undefined)
61 | 130 to 132 °C | C=Cc1c(N)nc(-c2ccc(Cl)c(F)c2F)nc1C(=O)OC
62 | 125 to 126 °C | Cc1ccc(C2CC3C=CC2C3)n1CCC1CC(O)CC(=O)O1 (centres undefined)
63 | 180 to 182 °C | COc1ccc(C2=NN(C3CCN(CC(N)=O)CC3)C(=O)CC2)cc1OC
64 | 146 to 147 °C | Cc1cc2ccccc2c(-c2ccc(I)cc2)n1
65 | 172 to 174 °C | O=C(c1ccc(C2CCCCC2)cc1)N1Cc2ccc(C(=O)C(Cl)(Cl)Cl)n2Cc2ccccc21
66 | 65 to 70 °C | CCc1cc(=O)n(C)c2c1C(=O)CCC2
67 | 105 to 110 °C | COc1ccc(C)cc1NC(=O)Nc1ccc(C2CCN(C(=O)Nc3ncccc3CO)CC2)cc1
68 | 115 to 156 °C | COCCn1nnnc1C1(c2cccc(C(F)(F)F)c2)C=CC(O)=CC1O (centres undefined)
69 | 287 to 288 °C | COc1cc(NC(C)=O)ccc1C=NNC(=N)NN=Cc1ccc(NC(C)=O)cc1OC
70 | 166 °C | CC(=O)Nc1ccc(NCCOS(C)(=O)=O)c([N+](=O)[O-])c1
71 | 230 °C | [N-]=[N+]=NC1(c2nc(N)nc(N)n2)C=CC(c2ccccc2)=CC1 (centres undefined)
72 | 100 to 120 °C | Nc1ccc(S(=O)(=O)Nc2ccn(C3CCCCC3)c(=O)n2)cc1

Row | melting point | SMILES
73 | 319 to 320 °C | COc1ccc(OC)n2nc(S(=O)(=O)Nc3c(F)cccc3F)nc12
74 | 239 to 240 °C | O=C(O)Cc1c(C(=O)c2cc3ccccc3cn2)[nH]c2ccc(Cl)cc12
75 | 176 to 178 °C | CCn1cc(C)c(NS(=O)(=O)c2ccc(N)cc2)nc1=O
76 | 117 to 118 °C | CCCNC(=O)C(C)=Cc1ccc2c(c1)c(Cc1ccc(C(=O)OC)cc1OC)cn2CC(=O)N(C)C
77 | 135 to 136 °C | CC/C(=C\C#N)c1ccc2c(c1)C(CC)(CC)OC(=O)N2
78 | 96 to 99 °C | Cc1c(-c2ccccc2)ncc2c(N3CCOC(C)C3)nnc(N3CCOC(C)C3)c12 (centres undefined)
79 | 53 to 55 °C | OC(CCCl)COc1ccc(F)cc1 (centres undefined)
80 | 125 to 126 °C | O=C(O)CCCOc1ccc(OCc2ccccc2)cc1
81 | 127 to 130 °C | Nc1nc2ccc(NC(=O)CNC(=O)[C@@H](Cc3ccccc3)NS(=O)(=O)Cc3ccccc3)cc2s1
82 | 89 to 92 °C | CC(C)(C)NC(=O)C(C)(C)N(OC(c1ccccc1)c1ccccc1)C(C)(C)C
83 | 234 to 238 °C | O=C(NC(P(=O)(O)O)P(=O)(O)O)c1cc2ccccc2s1
84 | 190 to 192 °C | CC1(C(O)=C(Cc2ccc(Cl)cc2Cl)n2cncn2)COCOC1
85 | 198 to 200 °C | Cn1ncnc1COc1nn2c(-c3ccccc3F)nnc2cc1C12CCC(C1)C2
86 | 156 °C | O=C(Nc1ncccn1)c1c(O)ccc2cc(-c3cccc(O)c3)ccc12
87 | 89 to 90 °C | COCCOc1ccc(CCCNS(C)(=O)=O)c(Oc2ncc(C(F)(F)F)cc2Cl)c1
88 | 225 to 226 °C | N#CC1CC2(c3ccccc3)SC13c1ccccc1CCN3C2=O (centres undefined)
89 | 76 to 78 °C | CCCC(NS(=O)(=O)NC(=O)OCc1ccccc1)C(=O)OC (centres undefined)
90 | 128 to 129 °C | Nc1cc(Cl)c(Cl)c(Br)c1N
91 | 71 to 72 °C | CCOC(=O)C(C#N)=CN(C)C1CCCCC1
92 | 147 to 148 °C | CCOC(=O)c1c(CN(CC)CC)nc2sc3c(c2c1-c1ccc(OC)c(OC)c1)CCN(S(C)(=O)=O)C3
93 | 108 to 109 °C | Cc1ccccc1Sc1cccc2c1OC(=O)C2
94 | 230 to 232 °C | c1ccn(Nc2ncnc3c2ncn3-n2cccc2)c1
95 | 167 to 169 °C | Oc1ccc(C2(c3ccc(O)c(Cl)c3)CCCCCCCCCCC2)cc1Cl

Row | SMILES | melting point
96 | OCC(O)CN1CCN(c2ccc(Cl)nn2)CC1 (centres undefined) | 126 to 128 °C
97 | O=C1CCC(N2CCC(n3c(=O)[nH]c4ccccc43)CC2)CC1 | 221 to 223 °C
98 | CN1CC[C@]2(c3ccccc3)CCCC[C@@]2(O)C1 (relative stereo) | 84 to 87 °C
99 | Cc1cc(C2=NOC(c3cc(Cl)cc(Cl)c3)(C(F)(F)F)C2)ccc1C(=O)Cl (centres undefined) | 140 to 143 °C
